Source: ChEMBL document CHEMBL1772960, “N,N'-methyleno-didemnin A from the ascidian Trididemnum solidum. Complete NMR assignments and confirmation of the imidazolidinone ring by strategic analysis of 1J(CH)” (J Nat Prod, 2011)
*1 amine or outer side, *2 acyl side, *3 side chain or, on linkers, in order; H or OH if unused. Where a SMILES comes first, the peptide text is derived from it. Bridges are numbered along the chain shown (N, C = ends). [ ]: non-standard residue; d: D form. The star is where a group is joined. X1 = CC[C@H](C)[C@@H](N[*:1])[C@@H](O)CC(=O)O[C@H](C(=O)[C@H](C)C(=O)[*:2])C(C)C; NMeY = CN[C@@H](Cc1ccc(O)cc1)C(=O)O; NMeL = CN[C@@H](CC(C)C)C(=O)O; dNMeL = CN[C@H](CC(C)C)C(=O)O; Pyruvoyl = CC(=O)C(=O)*

Test system: HCT-116
Experiment: Cytotoxicity against human HCT116 cells assessed as growth inhibition after 72 hrs by MTS assay
Assay type: functional, cell-based
Settings: HCT-116, 72 h

Structure (SMILES)	IC50
CC[C@H](C)[C@H]1NC(=O)[C@@H](NC(=O)[C@H](CC(C)C)N(C)C(=O)[C@@H]2CCCN2C(=O)C(C)=O)[C@@H](C)OC(=O)[C@H](Cc2ccc(OC)cc2)N(C)C(=O)[C@@H]2CCCN2C(=O)[C@H](CC(C)C)NC(=O)[C@@H](C)C(=O)[C@H](C(C)C)OC(=O)C[C@@H]1O (Pyruvoyl-P[NMeL]T[X1]LP[NMeY](Me); ester 3-C)	24 nM
CC[C@H](C)[C@H]1NC(=O)[C@@H](NC(=O)[C@@H](CC(C)C)NC)[C@@H](C)OC(=O)[C@H](Cc2ccc(OC)cc2)N(C)C(=O)[C@@H]2CCCN2C(=O)[C@H](CC(C)C)NC(=O)[C@@H](C)C(=O)[C@H](C(C)C)OC(=O)C[C@@H]1O [DIDEMNIN A] (H-[dNMeL]T[X1]LP[NMeY](Me); ester 2-C)	32 nM
